Entries after “also recorded” stand apart in the source; their conditions may differ. Peptide text beside a SMILES is read from it.
How the values were obtained:
Format in all cases: cell-based, human
[1] = test system: HaCaT cells; experiment: Cell death assay in HaCaT keratinocytes (Example 3)
Method: In an initial experiment, various concentrations of SOR-C13 and SOR-C27 were tested on human keratinocytes (HaCaT cells) for their ability to cause cell death. The negative control was Phosphate Buffered Saline (PBS) and the positive control was Glycolic Acid (20 mM), a known activator of TRPV3. At the concentrations used (10, 100 and 1000 μM) only the 1000 μM concentration produced a statistically significant increase in cell death over PBS (FIG. 6). […] The two peptides appeared to be indistinguishable in their activity with respect to the number of dead cells
Both peptides were dissolved in PBS at 30 mM concentration at ambient temperature based on the peptide content with a correction factor (SOR-C13 concentration was multiplied by 1.19, while SOR-C27 concentration was multiplied by 1.29). Stock solutions were sterilized by passing through a 0.2 μm syringe filter prewashed with PBS. Stocks of peptides were kept at −20° C. during the study.
Human immortalized keratinocyte HaCaT cells (Cat. #T0020001) were from Addexbio Technologies (San Diego, California, USA). In general, HaCaT cells were cultured in 37° C. CO2 incubator in DEME with 1.0 g/L glucose (Lonza, Cat #12-707F) with 10% FBS. Glutamine (2 mM), penicillin (100 I.U.) and streptomycin (100 μg/ml) were added to the media. Cells were sub-cultured twice per week using Trypsin-0.25% EDTA to detach cells.
HaCaT cells were plated at ˜8×10^5/well in each well of the 12-well tissue culture plates in triplicates in 2 ml culture media. Twenty-four (24) hours post-plating, cells were treated with PBS, or SOR-C13 at 10, 100 and 1000 μM, or SOR-C27 at 10, 100 and 1000 μM, or glycolic acid at 20 mM.
At 72 hours post-treatment, the incubation was terminated and supernatant was collected. Attached cells were washed with 2 ml PBS, and trypsinized. Suspension of cells was combined with supernatant and spun at 1000 g for 5 minutes. The cell pellet was then resuspended in 100 μl PBS for cell counting using trypan blue exclusion.
Student's t-test was used to compare the group treated with a test article vs. the group treated with PBS. Standard errors of mean (SEM) were used to represent variation of data.

[2] = test system: HaCaT cells; experiment: Wound healing (scratch gap closure) assay in HaCaT cells (Example 4); conditions: for Migration Score (gap closure activity): HaCaT wound model
Method: SOR-C13 and SOR-C27 were tested for their ability to promote tissue repair in a human keratinocytes (HaCaT) model of wound healing. In this model, cells are grown to confluency and then a gap is made in the sheet of cells by scratching the surface of the cells. After treating the cells for 24 hours, the closure of the gap, and the state of the cells in terms of polarization and mobility into the gap, are measured as a surrogate for activation of the wound healing response and the proliferation and/or migration of cells involved in tissue repair.
HaCaT cells were plated at 4×10^5 per well in 12-well tissue culture plates in MEGM Bullet Kit (Lonza, Cat. #CC-3150) containing bovine pituitary extracts (BPE), hEGF, insulin, and hydrocortisone. The total volume was 2 ml. About 24 hours later, a gap at the bottom of each well was generated by scratching with a sterile pipette tip. The supernatant was aspirated and cells were washed gently once with PBS. Fresh media (MEGM Bullet Kit, 2 ml) was added after the wash. Cells were treated in duplicates with PBS, or SOR-C13 at 10, 100 and 1000 μM, or SOR-C27 at 10, 100 and 1000 μM, and 100 μM valproic acid. After 24 hours, each well was examined under the microscope to semi-quantify the gap closure by cell migration. A digital camera fixed to the microscope was used to capture images of cells.
Under visual inspection, the wound healing results was scored as: • “−”: minimal cell polarization toward wound, no initiation of cell protrusion into the gap; no change in the wound gap; • “+”: cell polarization toward wound was observed; cell protrusion was observed; cell migration started but gap size is between 75 to 100% of original wound gap; • “++”: cell polarization toward the wound was observed; cell protrusion was observed; cell migration across the gap was observed, and gap size ≤½ of original wound gap; • “+++”: cell polarization toward wound was observed; cell protrusion was observed; cell migration across the gap was observed, and gap size ≤⅓ of original wound gap. Results

[3] = test system: HaCaT cells; experiment: Cell death assay in HaCaT cells with SOR-C13 fragments (Example 5); conditions: 100 and 1000 μM tested, 72 hours
Method: Solutions of each of the peptides listed in Table 2 were made based on formulation weight without correction of purity in PBS at a 100 mM stock concentration. Stock solutions were sterilized by passing through a 0.2 μm syringe filter prewashed with PBS. Stocks of peptides were kept in aliquots at −20° C. during the study. Glycolic acid was made in a 5M stock in PBS and filtered using a 0.2 μm syringe filter and kept at −20° C.
Human immortalized keratinocyte HaCaT cells were cultured as described in Example 3.
HaCaT cells were plated at ˜8×10^5/well in each well of the 12-well tissue culture plates in triplicates in 2 ml culture media. Twenty-four (24) hours post-plating, cells were treated with PBS, or peptide stocks at 100 and 1000 μM (in triplicates), or glycolic acid at 20 mM (single data point). The Cell Death Assay was otherwise performed as described in Example 3.

[4] = test system: HaCaT cells; experiment: Wound healing assay in HaCaT cells with SOR-C13 fragments (Example 5); conditions: 24 hours
Method: HaCaT cells were plated at 1.6×10^5 per well in 24-well tissue culture plates in 1 ml of DMEM low glucose medium with 10% FBS. After 3 days, when the cells in each well were ˜100% confluent, a gap at the bottom of each well was generated by scratching with a sterile pipette tip. Supernatant was aspirated and cells were washed gently once with PBS. Fresh media (MEGM Bullet Kit, (Lonza, Cat. #CC-3150) containing bovine pituitary extracts (BPE), hEGF, insulin, and hydrocortisone was added after the wash with peptides. After 24 hours, cells were fixed with 2% paraformaldehyde with 15-minute incubation. Fixed cells were rinsed with PBS. Cells in each well were then examined under the microscope to semi-quantify the gap closure by cell migration. A digital camera fixed to the microscope was used to capture images of cells. The width of gap was measured by a ruler semi-quantitatively on the image. Under visual inspection, the wound healing results were also scored as “−”; “+”; “++”; or “+++” using the same criteria as set out in Example 4.
The effect of the peptides on tissue repair was determined using a wound healing assay that measures the migration of HaCaT cells. Gap size prior to and after treatment was semi-quantified by measuring the size of each gap on a digital photograph of the cells.

With `CC(C)C[C@H](NC(=O)[C@H](Cc1ccccc1)NC(=O)[C@H](CCC(=O)O)NC(=O)[C@@H](N)CCCCN)C(=O)N[C@@H](Cc1cnc[nH]1)C(=O)N1CCC[C@H]1C(=O)N[C@@H](CO)C(=O)N[C@@H](CCCCN)C(=O)N[C@H](C(=O)N[C@@H](CC(=O)O)C(=O)N[C@@H](CC(C)C)C(=O)N1CCC[C@H]1C(=O)N[C@@H](CCCNC(=N)N)C(=O)O)C(C)C` [SOR-C13, KEFLHPSKVDLPR] (H-KEFLHPSKVDLPR-OH) the “increase in cell death compared to PBS treatment” value ([1]; 1 mM, 72-hour incubation) was roughly 2 fold, the “induction of cell death compared to PBS” value ([1]; 1 mM, 72 hours, p<0.05) was “significantly induced cell death” and the “number of dead cells” value ([1]; 1 mM, 72 hours, trypan blue exclusion) was ~2.2×10^4 /well. For the same compound, the “induction of cell death compared to PBS” value ([1]; 10 or 100 μM, 72 hours) was “no significant difference in the numbers of dead cells; also recorded: did not have a significant effect”, the “effect on migration of HaCaT cells through the scratch (words)” value (from here on “effect on migration … (words)”) ([2]; 10 μM, 24 hours) was “little difference compared to PBS treatment” and the “Migration Score (gap closure activity)” value ([2]; 10 uM, 24 hours) was “+ (cell polarization toward wound was observed; cell protrusion was observed; cell migration started but gap size is between 75 to 100% of original wound gap)”. The “effect on migration … (words)” value ([2]; 100 μM, 24 hours) was “clearly had an effect to induce cell migration”, the “Migration Score (gap closure activity)” value ([2]; 100 uM, 24 hours) was “++ (cell polarization toward the wound was observed; cell protrusion was observed; cell migration across the gap was observed, and gap size ≤½ of original wound gap)” and the “effect on migration … (words)” value ([2]; 1000 μM, 24 hours) was “dramatically closed”. For the same compound, the “Migration Score (gap closure activity)” value ([2]; 1000 uM, 24 hours) was “+++ (cell polarization toward wound was observed; cell protrusion was observed; cell migration across the gap was observed, and gap size ≤⅓ of original wound gap)”, the “effect on migration of HaCaT cells over the tested concentrations” value ([2]; 10, 100, 1000 μM, 24 hours) was “promote tissue repair in a dose responsive manner; also recorded: dose-dependent effect on promoting the migration; also recorded: induced migration of HaCaT cells in a dose-dependent manner” and the “concentrations at which wound healing of HaCaT cells was promoted” value ([2]; 24-hour incubation) was no less than 100 µM. For the same compound, the “induction of cell death (words)” value [3] was “no significant effect to induce cell death; also recorded: no increase in cell death above the PBS treatment”, the “wound healing response, gap closure” value ([4]; 1000 μM) was “no response” and the “concentration dependence of wound healing response / gap closure” value ([4]; 10, 100 and 1000 μM) was “lower concentrations of SOR-C13 are more effective than higher concentrations; also recorded: lower concentrations are more effect than higher concentrations”. For the same compound, the “wound healing response, gap closure” value ([4]; two lowest concentrations (10 and 100 μM)) was “very good response”.
